Experimental data as given in patent US20250228759A1, “ANTI-AGING COSMETIC COMPOSITIONS COMPRISING XANTHOMMATIN” (SEASPIRE, INC., priority 2021, published 2025).

System: NativeSkin® human skin tissues
Assay: Gene expression assay (Genemarkers Standard Skin Panel, qPCR) in ex vivo skin
Type: cell-based
Settings: 24 hrs, N=4
Experimental: This study was conducted to determine how different concentrations (0.316 μM-10.0 mM) of xanthommatin influences gene expression in ex vivo NativeSkin® human skin tissues (purchased from Genoskin). NativeSkin® human skin models hold normal skin barrier function, a mature stratum corneum, a functional basal layer and all cell types and skin appendages of in vivo human skin.
Gene expression was assessed using Genemarkers Standard Skin Panel, a qPCR-based gene expression panel which contains 107 target genes potentially relevant in skin biology and 5 endogenous control genes. Gene expression was assessed 24 hrs following application of the test material to the skin tissues.
Formulation design. A gel containing either 0.1% or 0.4% (Table 1) by mass percentage of ammonium xanthommatin (Xa) was prepared. Phase A was initiated by adding 0.3 wt % of carbomer into the water without stirring. Next, the solution was heated to 75° C. with mixing to allow the carbomer to disperse throughout the mixture before ammonium xanthommatin was slowly added and allowed to mix for full dissolution. In a separate reaction vessel, Phase B was created with glycerin (3.5%) and phenoxyethanol (0.95%) and mixed well. Phase B was then added to Phase A. The final phase (Phase C), containing 4% deionized water and 0.4% sodium hydroxide, was added to the main phase for neutralization. The gel was then cooled to room temperature.
Tissue equilibration. Native tissues (Genoskin) were equilibrated overnight at 37° C. with 5% CO2 and ˜95% relative humidity. The following day, the equilibrium medium was removed from each well and replaced with 1.0 mL of maintenance medium.
Treatment Media. Tissues were obtained from the abdomen of a person with Fitzpatrick type 2-3 skin. Genoskin facilities mounted 11 mm biopsies into Nativeskin tissue inserts which were used for genetic analysis 5 days later. N=4 biological replicates per treatment group. For WST-8 (−) control tissue (N=2), 10 μL of Triton X-100 (1%) was applied to the surface of the tissue; two untreated tissues served as the WST-8 control.
Tissue and medium collections. A 2 mm biopsy punch was taken from the center for the WST-8 assay. Remaining tissues were placed in a tube containing RNAlater preservative solutions. Tissues were incubated for 1-2 hrs until RNA was isolated. RNA was isolated using an RNeasy Mini kit (Qiagen) following the manufacturer's instructions. Each sample was vacuum concentrated to at least 200 ng/μL to provide sufficient amount of RNA for cDNA synthesis. RNA concentration and purity were determined using a Nanodrop 2000 spectrophotometer.
cDNA was generated using a High Capacity cDNA Synthesis Kit (Applied Biosystems) and was generated from 2000 ng RNA per sample for OpenArray processing. qPCR data quality and statistical analysis was assessed and performed on the raw data files using ThermoFisher Connect Software (Life Technologies). Statistical analysis was performed using the relative quantitation (RQ) method, where the Cq value of the target gene is normalized to the Cq value of an endogenous control gene (selected from one of GAPDH, GUSB, HPRT1, PPIA, and UBC) to generate the delta Cq values, which were used to normalize variability between the samples.
Statistical analysis. Unpaired t-tests were carried out using the ThermoFisher Connect software.

NC(CC(=O)c1cccc2oc3cc(=O)c4[nH]c(C(=O)O)cc(=O)c4c-3nc12)C(=O)O (stereo not drawn) [ammonium xanthommatin]
HAS2 (Hyaluronan synthase 2) gene expression, % Change (3.16 mM (0.1%) dose group): 74% | HAS2 (Hyaluronan synthase 2) gene expression, FC (linear fold change) (3.16 mM (0.1%) dose group): 1.74 | HAS2 (Hyaluronan synthase 2) gene expression, Rq (3.16 mM (0.1%) dose group): 1.74 | COL1A1 (collagen) gene expression, % Change (10 mM (0.4%) dose group): 153% | COL1A1 (collagen) gene expression, FC (linear fold change) (10 mM (0.4%) dose group): 2.53 | COL1A1 (collagen) gene expression, Rq (10 mM (0.4%) dose group): 2.525 | COL3A1 (collagen) gene expression, % Change (10 mM (0.4%) dose group): 137% | COL3A1 (collagen) gene expression, FC (linear fold change) (10 mM (0.4%) dose group): 2.37 | COL3A1 (collagen) gene expression, Rq (10 mM (0.4%) dose group): 2.37 | FOXO3 (subclass of the forkhead family of transcription factors) gene expression, % Change (10 mM (0.4%) dose group): 114% | FOXO3 (subclass of the forkhead family of transcription factors) gene expression, FC (linear fold change) (10 mM (0.4%) dose group): 2.14 | FOXO3 (subclass of the forkhead family of transcription factors) gene expression, Rq (10 mM (0.4%) dose group): 2.142 | HSPG2 (Heparan Sulfate Proteoglycan 2) gene expression, % Change (10 mM (0.4%) dose group): 48% | HSPG2 (Heparan Sulfate Proteoglycan 2) gene expression, FC (linear fold change) (10 mM (0.4%) dose group): 1.48 | HSPG2 (Heparan Sulfate Proteoglycan 2) gene expression, Rq (10 mM (0.4%) dose group): 1.477 | IGF1R (insulin-like growth factor 1) gene expression, % Change (10 mM (0.4%) dose group): 26% | IGF1R (insulin-like growth factor 1) gene expression, FC (linear fold change) (10 mM (0.4%) dose group): 1.26 | IGF1R (insulin-like growth factor 1) gene expression, Rq (10 mM (0.4%) dose group): 1.257 | ITGB4 (Integrin alpha-6/beta-4 is a receptor for laminin) gene expression, % Change (10 mM (0.4%) dose group): 58% | ITGB4 (Integrin alpha-6/beta-4 is a receptor for laminin) gene expression, FC (linear fold change) (10 mM (0.4%) dose group): 1.58 | ITGB4 (Integrin alpha-6/beta-4 is a receptor for laminin) gene expression, Rq (10 mM (0.4%) dose group): 1.582 | KRT14 (keratin 14) gene expression, % Change (10 mM (0.4%) dose group): 72% | KRT14 (keratin 14) gene expression, FC (linear fold change) (10 mM (0.4%) dose group): 1.72 | KRT14 (keratin 14) gene expression, Rq (10 mM (0.4%) dose group): 1.721 | MFN2 (mitofusin 2) gene expression, % Change (10 mM (0.4%) dose group): 45% | MFN2 (mitofusin 2) gene expression, FC (linear fold change) (10 mM (0.4%) dose group): 1.45 | MFN2 (mitofusin 2) gene expression, Rq (10 mM (0.4%) dose group): 1.447 | POLG1/MDP1 (DNA Polymerase Gamma) gene expression, % Change (10 mM (0.4%) dose group): 71% | POLG1/MDP1 (DNA Polymerase Gamma) gene expression, FC (linear fold change) (10 mM (0.4%) dose group): 1.71 | POLG1/MDP1 (DNA Polymerase Gamma) gene expression, Rq (10 mM (0.4%) dose group): 1.713 | ST14 (Suppressor of tumorigenicity 14 protein) gene expression, % Change (10 mM (0.4%) dose group): 39% | ST14 (Suppressor of tumorigenicity 14 protein) gene expression, FC (linear fold change) (10 mM (0.4%) dose group): 1.39 | ST14 (Suppressor of tumorigenicity 14 protein) gene expression, Rq (10 mM (0.4%) dose group): 1.385
